Values quoted from earlier work as cited in US9226906B2, “Method and nutritional supplement for enhancing weight gain of a mammal” (Supragenix, LLC, priority 2013, dated 2016).

Target: CB1 (Homo sapiens, UniProt P21554)
Sequence (P21554 whole entry, species assumed): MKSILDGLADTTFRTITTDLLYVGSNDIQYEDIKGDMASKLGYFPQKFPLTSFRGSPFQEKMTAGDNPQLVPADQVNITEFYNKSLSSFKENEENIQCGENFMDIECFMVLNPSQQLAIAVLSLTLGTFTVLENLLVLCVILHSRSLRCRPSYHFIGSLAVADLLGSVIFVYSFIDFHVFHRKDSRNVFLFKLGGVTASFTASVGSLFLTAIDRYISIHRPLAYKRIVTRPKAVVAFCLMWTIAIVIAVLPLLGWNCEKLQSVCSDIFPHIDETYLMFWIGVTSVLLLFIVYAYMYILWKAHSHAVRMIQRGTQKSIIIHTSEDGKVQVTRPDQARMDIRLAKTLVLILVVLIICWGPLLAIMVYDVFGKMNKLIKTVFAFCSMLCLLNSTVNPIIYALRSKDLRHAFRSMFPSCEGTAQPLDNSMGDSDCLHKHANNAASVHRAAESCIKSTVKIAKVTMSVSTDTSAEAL

| Compound | activating CB1 |
| --- | --- |
| CCC/C=C\CC/C=C/C=C/C(=O)NCC(C)C [Dodeca-2E,4E,8Z-trienoic acid isobutylamide] | effective in activating CB1 |
| CCCCCCC/C=C/C=C/C(=O)NCC(C)C [Dodeca-2E,4E-dienoic acid isobutylamide] | effective in activating CB1 |
| CC#CC#CCC/C=C\C=C\C(=O)NCC(C)C [Dodeca-2E,4Z-diene-8,10-diynoic acid isobutylamide] | effective in activating CB1 |
| CC#CC#CCCCC/C=C/C(=O)NCC(C)CC (centres unmarked) [Dodeca-2E-ene-8,10-diynoic acid 2-methylbutylamide] | effective in activating CB1 |
| C#CC#CC/C=C\CCCCC/C=C/C(=O)NCC(C)C [Pentadeca-2E,9Z-diene-12,14-diynoic acid isobutylamide] | effective in activating CB1 |
| C#CC#CCCCCC=CC(=O)NCC(C)C [Undeca-2-ene-8,10-diynoic acid isobutylamide] | effective in activating CB1 |
| C#CC#CCC/C=C/C=C\C(=O)NCC(C)C [Undeca-2Z,4E-diene-8,10-diynoic acid isobutylamide] | effective in activating CB1 |
| Dodeca-2E,4E,8Z,10E/Z-tetraenoic acid isobutylamides | effective in activating CB1 |
